Laboratory results from patent US8501842B2, “Polypropylene resin composition and molded article” (Sumitomo Chemical Company, Limited, priority 2007, dated 2013).

Assay: Weight loss by thermogravimetric analysis (TG-DTA)
Format: physicochemical
Conditions: room temperature to 300° C. at 10° C./min, nitrogen gas atmosphere (100 ml/min)
Method: Regarding requirement (c), from the viewpoint of the staining of a mold, the emitted amount of VOC, and the stability against photodegradation, the weight loss measured in a thermogravimetric analysis at a temperature of 300° C. under a nitrogen gas atmosphere preferably is less than 5% by weight, and more preferably is less than 3% by weight. The weight loss measured by the thermogravimetric analysis of a hindered amine light stabilizer (C) is a value determined by using a thermo gravimetry differential thermal analyzer (TG-DTA). Described concretely, it is a weight loss rate determined using a thermobalance when the temperature of a hindered amine light stabilizer (C) is increased from room temperature to 300° C. at a rate of 10° C. per minute under a nitrogen gas atmosphere (in a nitrogen flow at a flow rate of 100 ml/min).
The weight loss by thermogravimetric analysis (TG-DTA) of a hindered amine light stabilizer was measured with a thermo gravimetry differential thermal analyzer from room temperature to 300° C. at a temperature increasing rate of 10° C./min under a nitrogen gas atmosphere (100 ml/min).

Weight loss by thermogravimetric analysis (TG-DTA) | Molecule
31.6 % by weight | CC(C)(C)c1ccc(OC(=O)c2cc(C(C)(C)C)c(O)c(C(C)(C)C)c2)c(C(C)(C)C)c1 [Example C-3, 2,4-Di-tert-butylphenyl 3,5-di-tert-butyl-4-hydroxybenzoate]
5.8 % by weight | CN1C(C)(C)CC(OC(=O)CC(C(=O)OC2CC(C)(C)N(C)C(C)(C)C2)C(CC(=O)OC2CC(C)(C)N(C)C(C)(C)C2)C(=O)OC2CC(C)(C)N(C)C(C)(C)C2)CC1(C)C (stereo not drawn) [Example C-2, Tetrakis(1,2,2,6,6-pentamethyl-4-piperidyl) 1,2,3,4-butanetetracarboxylate]

Molecule | Weight loss by thermogravimetric analysis (TG-DTA)
Condensate of N,N-bis(3-aminopropyl)ethylenediamine-2,4-bis[N-butyl-N-(1,2,2,6,6-pentamethyl-4-piperidyl)amino]-6-chloro-1,3,5-triazine [Example C-5] | 0.6 % by weight
